Experimental data taken from ChEMBL document CHEMBL5465560, “Selectivity Literature for EUbOPEN Chemogenomic Library” (2024).

Key:
[1] = target: T1, cAMP-dependent protein kinase catalytic subunit PRKX (Homo sapiens) (UniProt P51817); assay: Selectivity interaction (KinomeScan (DiscoverX)) EUB0000229b PRKX; conditions: at 10 µM
T1 sequence (whole entry): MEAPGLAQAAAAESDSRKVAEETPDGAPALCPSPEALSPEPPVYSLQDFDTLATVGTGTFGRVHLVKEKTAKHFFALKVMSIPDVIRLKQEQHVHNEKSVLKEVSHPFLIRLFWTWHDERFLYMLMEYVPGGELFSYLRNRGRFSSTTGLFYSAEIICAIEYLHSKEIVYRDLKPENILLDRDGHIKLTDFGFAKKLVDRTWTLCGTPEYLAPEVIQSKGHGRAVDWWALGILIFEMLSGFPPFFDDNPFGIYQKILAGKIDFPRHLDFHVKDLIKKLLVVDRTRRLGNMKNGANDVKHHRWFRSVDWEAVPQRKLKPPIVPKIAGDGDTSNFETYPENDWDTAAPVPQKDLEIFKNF

[2] = target: Cyclin-dependent kinase 16 (Homo sapiens) (UniProt Q00536); assay: Selectivity interaction (Kinase panel (KiNativ target engagement assay in Jurkat cells)) EUB0001635a CDK16; type: cell-based; conditions: Selectivity number of off-targets 0.0, Selectivity number of targets 233.0, Source Knowledge https://www.sciencedirect.com/science/article/pii/S2451945619300674?via%3Dihub, at 1 µM
Chain of Cyclin-dependent kinase 16 (Homo sapiens) (Q00536 whole entry, canonical isoform): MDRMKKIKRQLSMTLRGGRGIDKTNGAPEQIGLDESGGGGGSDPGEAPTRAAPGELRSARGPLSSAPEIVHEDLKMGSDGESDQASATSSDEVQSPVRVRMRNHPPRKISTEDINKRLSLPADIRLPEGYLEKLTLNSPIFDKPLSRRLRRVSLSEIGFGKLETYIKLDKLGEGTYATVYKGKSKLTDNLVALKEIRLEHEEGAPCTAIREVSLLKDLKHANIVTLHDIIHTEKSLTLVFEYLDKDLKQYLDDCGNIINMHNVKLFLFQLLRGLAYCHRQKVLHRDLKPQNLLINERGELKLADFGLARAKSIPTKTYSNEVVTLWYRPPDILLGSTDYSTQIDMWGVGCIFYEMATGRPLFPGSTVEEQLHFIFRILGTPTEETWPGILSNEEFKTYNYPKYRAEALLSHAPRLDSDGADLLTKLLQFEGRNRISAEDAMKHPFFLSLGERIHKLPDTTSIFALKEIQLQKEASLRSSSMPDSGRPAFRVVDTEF

[3] = target: Phosphatidylinositol 4,5-bisphosphate 3-kinase catalytic subunit alpha isoform (Homo sapiens) (UniProt P42336); conditions: at 10 µM
[4] = target: T2, Inhibitor of nuclear factor kappa-B kinase subunit epsilon (Homo sapiens) (UniProt Q14164); assay: Selectivity interaction (ActivX KiNativ screen (kinase selectivity in THP-1 cell lysates)) EUB0000639a IKBKE; type: subcellular; conditions: lysate, at 0.2 µM
T2 sequence (whole entry): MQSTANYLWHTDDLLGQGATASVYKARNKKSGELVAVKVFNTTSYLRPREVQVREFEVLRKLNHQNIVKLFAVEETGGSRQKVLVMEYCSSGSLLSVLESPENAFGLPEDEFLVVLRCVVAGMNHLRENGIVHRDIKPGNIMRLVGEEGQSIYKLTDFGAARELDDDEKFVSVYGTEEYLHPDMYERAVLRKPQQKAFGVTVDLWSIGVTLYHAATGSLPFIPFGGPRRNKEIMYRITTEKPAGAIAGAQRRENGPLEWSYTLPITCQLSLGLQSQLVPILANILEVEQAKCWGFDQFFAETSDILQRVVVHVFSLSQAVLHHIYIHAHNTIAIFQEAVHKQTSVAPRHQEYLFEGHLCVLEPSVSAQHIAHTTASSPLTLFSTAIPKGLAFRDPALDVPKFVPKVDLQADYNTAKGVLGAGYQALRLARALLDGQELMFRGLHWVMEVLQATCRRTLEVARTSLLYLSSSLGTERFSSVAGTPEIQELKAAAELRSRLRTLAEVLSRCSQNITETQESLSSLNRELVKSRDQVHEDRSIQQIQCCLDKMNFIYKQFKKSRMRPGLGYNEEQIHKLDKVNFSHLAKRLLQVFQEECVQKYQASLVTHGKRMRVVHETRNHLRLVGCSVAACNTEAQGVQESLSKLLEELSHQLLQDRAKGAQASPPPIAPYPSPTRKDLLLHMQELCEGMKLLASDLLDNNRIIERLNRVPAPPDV

[5] = target: Dual specificity tyrosine-phosphorylation-regulated kinase 1B (Homo sapiens, UniProt Q9Y463); assay: Selectivity interaction (Kinase panel (Invitrogen)) EUB0000639a DYRK1B; conditions: at 200 nM
Chain of Dual specificity tyrosine-phosphorylation-regulated kinase 1B (Q9Y463 whole entry, looked up): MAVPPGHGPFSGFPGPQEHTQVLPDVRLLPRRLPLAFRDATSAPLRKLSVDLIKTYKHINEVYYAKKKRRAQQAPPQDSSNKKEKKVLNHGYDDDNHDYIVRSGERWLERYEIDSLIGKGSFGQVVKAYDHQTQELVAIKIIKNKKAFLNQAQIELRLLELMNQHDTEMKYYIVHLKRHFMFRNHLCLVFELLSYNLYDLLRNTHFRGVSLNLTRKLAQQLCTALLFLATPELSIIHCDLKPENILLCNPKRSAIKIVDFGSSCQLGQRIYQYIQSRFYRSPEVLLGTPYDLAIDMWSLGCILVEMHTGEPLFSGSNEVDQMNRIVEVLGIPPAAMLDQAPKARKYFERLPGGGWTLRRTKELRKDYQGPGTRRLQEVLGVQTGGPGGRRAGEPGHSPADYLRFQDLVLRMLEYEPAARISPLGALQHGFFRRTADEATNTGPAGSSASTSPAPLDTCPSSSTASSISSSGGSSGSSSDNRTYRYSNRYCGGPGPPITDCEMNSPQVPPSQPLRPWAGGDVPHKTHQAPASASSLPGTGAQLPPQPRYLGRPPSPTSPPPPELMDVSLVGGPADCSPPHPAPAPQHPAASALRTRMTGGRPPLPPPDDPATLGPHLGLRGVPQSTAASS

[6] = target: Cyclin-dependent kinase 18 (Homo sapiens) (UniProt Q07002); assay: Selectivity interaction (ActivX KiNativ screen (kinase selectivity in THP-1 cell lysates)) EUB0000639a CDK18; type: subcellular; conditions: lysate, at 5 µM
[7] = target: Vascular endothelial growth factor receptor 2 (Homo sapiens, UniProt P35968); assay: Selectivity interaction (KinomeScan (DiscoverX)) EUB0000045b KDR
Chain of Vascular endothelial growth factor receptor 2 (P35968 whole entry): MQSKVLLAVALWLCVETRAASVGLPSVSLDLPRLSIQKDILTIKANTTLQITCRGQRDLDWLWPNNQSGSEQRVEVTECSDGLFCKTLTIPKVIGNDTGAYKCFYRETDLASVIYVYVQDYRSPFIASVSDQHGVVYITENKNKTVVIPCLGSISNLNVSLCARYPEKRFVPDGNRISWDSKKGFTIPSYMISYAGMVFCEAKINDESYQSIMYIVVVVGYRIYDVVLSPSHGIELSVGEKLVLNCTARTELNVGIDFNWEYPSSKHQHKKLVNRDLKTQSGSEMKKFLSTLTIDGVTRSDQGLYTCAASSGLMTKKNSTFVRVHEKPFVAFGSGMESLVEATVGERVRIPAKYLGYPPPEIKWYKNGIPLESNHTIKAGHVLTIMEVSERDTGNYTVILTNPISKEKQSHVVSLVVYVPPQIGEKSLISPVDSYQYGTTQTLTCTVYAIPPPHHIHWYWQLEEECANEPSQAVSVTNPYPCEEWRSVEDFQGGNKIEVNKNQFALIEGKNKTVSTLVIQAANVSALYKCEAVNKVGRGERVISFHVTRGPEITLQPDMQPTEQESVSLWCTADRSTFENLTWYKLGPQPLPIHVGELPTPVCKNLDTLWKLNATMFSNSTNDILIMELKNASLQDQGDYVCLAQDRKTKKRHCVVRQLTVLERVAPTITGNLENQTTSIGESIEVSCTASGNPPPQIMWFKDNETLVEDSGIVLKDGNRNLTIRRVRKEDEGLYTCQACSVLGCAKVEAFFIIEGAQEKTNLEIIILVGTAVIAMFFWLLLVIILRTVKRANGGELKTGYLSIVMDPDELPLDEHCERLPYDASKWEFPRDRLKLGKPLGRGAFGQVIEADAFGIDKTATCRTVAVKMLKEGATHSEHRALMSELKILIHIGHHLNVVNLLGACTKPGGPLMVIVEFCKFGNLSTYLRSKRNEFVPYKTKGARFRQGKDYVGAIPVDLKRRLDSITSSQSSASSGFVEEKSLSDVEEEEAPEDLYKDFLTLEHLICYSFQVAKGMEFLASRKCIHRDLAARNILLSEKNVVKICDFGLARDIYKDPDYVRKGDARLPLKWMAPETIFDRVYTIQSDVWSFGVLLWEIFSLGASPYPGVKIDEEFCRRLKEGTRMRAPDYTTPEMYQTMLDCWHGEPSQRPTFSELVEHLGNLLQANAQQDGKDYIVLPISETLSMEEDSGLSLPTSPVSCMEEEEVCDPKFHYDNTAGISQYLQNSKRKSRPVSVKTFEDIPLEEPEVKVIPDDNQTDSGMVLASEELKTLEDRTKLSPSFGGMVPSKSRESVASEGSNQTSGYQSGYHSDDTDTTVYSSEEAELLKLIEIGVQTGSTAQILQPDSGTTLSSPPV

[8] = target: Tyrosine-protein kinase Fer (Homo sapiens) (UniProt P16591); conditions: at 10 µM
[9] = target: Proto-oncogene tyrosine-protein kinase Src (Homo sapiens, UniProt P12931); assay: Selectivity interaction (KinomeScan (DiscoverX)) EUB0001619a SRC; conditions: at 1 µM
Chain of Proto-oncogene tyrosine-protein kinase Src (P12931 2-536 limits assumed): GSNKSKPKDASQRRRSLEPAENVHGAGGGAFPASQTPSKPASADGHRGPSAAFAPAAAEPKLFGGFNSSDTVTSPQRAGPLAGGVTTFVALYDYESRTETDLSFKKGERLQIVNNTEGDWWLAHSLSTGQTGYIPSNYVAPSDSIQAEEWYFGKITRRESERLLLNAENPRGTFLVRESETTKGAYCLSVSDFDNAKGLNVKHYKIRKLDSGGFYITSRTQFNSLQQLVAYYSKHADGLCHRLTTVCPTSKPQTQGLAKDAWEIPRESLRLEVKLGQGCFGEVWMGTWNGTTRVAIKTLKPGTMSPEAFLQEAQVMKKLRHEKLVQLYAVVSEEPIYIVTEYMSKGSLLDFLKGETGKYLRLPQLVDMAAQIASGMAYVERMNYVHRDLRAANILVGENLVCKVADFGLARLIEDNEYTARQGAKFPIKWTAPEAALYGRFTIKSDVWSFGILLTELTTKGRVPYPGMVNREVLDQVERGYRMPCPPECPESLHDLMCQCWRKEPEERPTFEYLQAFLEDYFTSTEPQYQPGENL

[10] = target: Cyclin-dependent kinase 13 (Homo sapiens, UniProt Q14004); assay: Selectivity interaction (KinomeScan (DiscoverX)) EUB0001619a CDK13; conditions: at 1 µM
[11] = target: T3, Serine/threonine-protein kinase BRSK1 (Homo sapiens) (UniProt Q8TDC3); assay: Selectivity interaction (Upstate Kinase Profiler service (Millipore)) EUB0000056c BRSK1; conditions: at 1 µM
T3 sequence (whole entry): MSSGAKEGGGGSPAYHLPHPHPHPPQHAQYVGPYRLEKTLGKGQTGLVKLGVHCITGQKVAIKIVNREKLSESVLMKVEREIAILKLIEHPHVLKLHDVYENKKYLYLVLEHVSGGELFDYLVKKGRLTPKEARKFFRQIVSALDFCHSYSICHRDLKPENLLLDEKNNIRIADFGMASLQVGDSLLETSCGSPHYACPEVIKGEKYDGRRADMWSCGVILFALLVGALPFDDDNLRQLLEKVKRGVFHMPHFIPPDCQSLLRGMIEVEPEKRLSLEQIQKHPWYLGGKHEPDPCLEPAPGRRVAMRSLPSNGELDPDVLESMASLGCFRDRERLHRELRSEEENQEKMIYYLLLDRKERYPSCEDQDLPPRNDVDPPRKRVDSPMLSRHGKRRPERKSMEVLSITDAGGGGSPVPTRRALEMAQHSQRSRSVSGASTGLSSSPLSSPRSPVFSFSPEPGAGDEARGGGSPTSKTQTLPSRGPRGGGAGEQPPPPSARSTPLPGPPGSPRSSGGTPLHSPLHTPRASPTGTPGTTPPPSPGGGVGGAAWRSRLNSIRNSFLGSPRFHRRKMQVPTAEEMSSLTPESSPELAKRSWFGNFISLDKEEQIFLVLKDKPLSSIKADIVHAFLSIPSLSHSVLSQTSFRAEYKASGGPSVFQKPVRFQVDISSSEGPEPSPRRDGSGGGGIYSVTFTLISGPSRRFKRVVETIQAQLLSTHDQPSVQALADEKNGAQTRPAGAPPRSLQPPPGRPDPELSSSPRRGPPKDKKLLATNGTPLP

[12] = target: Casein kinase I isoform gamma-3 (Homo sapiens) (UniProt Q9Y6M4); assay: Selectivity interaction (KinomeScan (DiscoverX)) EUB0000655a CSNK1G3; conditions: at 10 µM
[13] = target: Wee1-like protein kinase (Homo sapiens) (UniProt P30291); assay: Selectivity interaction (KinomeScan (DiscoverX)) EUB0000695a WEE1; conditions: at 100 nM
Chain of Wee1-like protein kinase (Homo sapiens) (P30291 whole entry, looked up): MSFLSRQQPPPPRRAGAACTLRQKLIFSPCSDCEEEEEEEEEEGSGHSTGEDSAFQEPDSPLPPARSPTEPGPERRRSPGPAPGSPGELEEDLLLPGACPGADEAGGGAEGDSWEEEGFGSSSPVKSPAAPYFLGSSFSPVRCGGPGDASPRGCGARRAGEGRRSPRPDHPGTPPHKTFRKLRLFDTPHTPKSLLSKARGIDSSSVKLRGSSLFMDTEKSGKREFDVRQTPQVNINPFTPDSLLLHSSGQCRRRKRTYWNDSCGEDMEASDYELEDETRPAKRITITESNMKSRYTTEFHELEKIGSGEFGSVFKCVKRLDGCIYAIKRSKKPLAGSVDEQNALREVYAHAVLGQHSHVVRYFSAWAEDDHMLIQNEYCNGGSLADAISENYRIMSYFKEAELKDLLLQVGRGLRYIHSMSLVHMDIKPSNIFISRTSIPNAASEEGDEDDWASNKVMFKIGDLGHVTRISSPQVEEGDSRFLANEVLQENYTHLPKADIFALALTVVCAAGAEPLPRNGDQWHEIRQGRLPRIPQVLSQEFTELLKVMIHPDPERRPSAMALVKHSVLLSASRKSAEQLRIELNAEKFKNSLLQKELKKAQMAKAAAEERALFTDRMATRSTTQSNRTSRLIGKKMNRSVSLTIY

[14] = target: Tyrosine-protein kinase JAK1 (Homo sapiens, UniProt P23458); assay: Selectivity interaction (Kinase panel (Carna Biosciences)) EUB0001542aTs JAK1; conditions: at 1 µM
Chain of Tyrosine-protein kinase JAK1 (P23458 whole entry): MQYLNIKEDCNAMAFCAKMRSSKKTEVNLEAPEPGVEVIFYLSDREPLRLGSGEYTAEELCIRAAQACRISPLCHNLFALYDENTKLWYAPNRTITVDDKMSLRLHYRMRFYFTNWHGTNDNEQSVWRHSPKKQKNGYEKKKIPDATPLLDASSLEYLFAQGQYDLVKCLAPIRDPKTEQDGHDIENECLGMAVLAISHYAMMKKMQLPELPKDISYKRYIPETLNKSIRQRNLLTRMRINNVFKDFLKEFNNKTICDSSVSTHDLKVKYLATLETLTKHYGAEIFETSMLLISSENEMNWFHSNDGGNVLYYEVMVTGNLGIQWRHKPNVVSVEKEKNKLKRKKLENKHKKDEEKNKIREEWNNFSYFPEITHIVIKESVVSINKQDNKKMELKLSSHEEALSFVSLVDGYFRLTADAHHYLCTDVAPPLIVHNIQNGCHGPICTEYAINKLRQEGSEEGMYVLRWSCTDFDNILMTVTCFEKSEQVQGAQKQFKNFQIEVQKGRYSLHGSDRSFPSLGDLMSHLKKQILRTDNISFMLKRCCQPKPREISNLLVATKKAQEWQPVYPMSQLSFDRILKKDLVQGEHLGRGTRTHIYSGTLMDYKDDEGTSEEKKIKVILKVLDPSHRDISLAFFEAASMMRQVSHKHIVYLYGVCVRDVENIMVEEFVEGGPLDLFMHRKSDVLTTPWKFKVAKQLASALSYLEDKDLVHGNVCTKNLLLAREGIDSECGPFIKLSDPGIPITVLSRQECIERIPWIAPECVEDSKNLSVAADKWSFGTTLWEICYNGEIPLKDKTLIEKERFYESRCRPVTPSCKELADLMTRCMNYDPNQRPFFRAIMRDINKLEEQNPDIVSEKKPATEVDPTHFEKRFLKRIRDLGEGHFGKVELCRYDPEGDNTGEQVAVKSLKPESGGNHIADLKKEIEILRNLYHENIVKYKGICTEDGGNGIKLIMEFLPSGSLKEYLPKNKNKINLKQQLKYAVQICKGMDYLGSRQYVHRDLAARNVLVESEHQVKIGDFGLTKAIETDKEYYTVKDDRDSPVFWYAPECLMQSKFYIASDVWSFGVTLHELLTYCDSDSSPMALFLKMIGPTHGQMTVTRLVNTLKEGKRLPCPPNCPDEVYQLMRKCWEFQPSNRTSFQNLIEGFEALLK

COc1cc(N(C)c2ccnc3ccc(C(F)(F)F)cc23)cc(OC)c1OC
% binding [1]: 72%

C=CC(=O)Nc1ccc(C(=O)Nc2[nH]nc3c2CN(C(=O)N[C@H](CN(C)C)c2ccccc2)C3(C)C)cc1
% of engagement [2]: 3.1%

CCC(=O)N1CC[C@H](Nc2ncnc3c2CN(c2cnc(OC)c(C(F)(F)F)c2)CC3)C1 [LENIOLISIB]
% of inhibition [3]: 96%

CC[C@@H]1[C@H](F)C(=O)N[C@@H]1COc1nccc2cc(C(N)=O)c(OC)cc12 [ZIMLOVISERTIB]
% of inhibition [4]: -29.9%
% of inhibition [5]: 16.5%
% of inhibition [6]: 6.5%

C=CC(=O)Nc1cc(-n2c(=O)ccc3cnc4ccc(-c5ccc(NS(C)(=O)=O)cc5)cc4c32)ccc1C
% of control ([7]; at 1 µM): 97%
% of control ([7]; at 10 µM): 100%

Cc1cc([C@@H](C)Nc2ccccc2C(=O)O)c2nc(N3CCOCC3)cc(=O)n2c1 [AZD-6482]
% of control [8]: 100%

N#Cc1cccc(-c2c[nH]c3ncnc(N4CCOCC4)c23)c1
% of control [9]: 100%
% of control [10]: 100%

Cc1ccc(-c2ccc3c(ccc4sc5c(c43)NC[C@@H](C)NC5=O)n2)cn1
% of inhibition [11]: 80%

CN(C)CCOc1ccc(-c2nc(-c3ccncc3)c(-c3ccc4c(c3)CC/C4=N\O)[nH]2)cc1
% of control [12]: 92%

Cc1cc(F)c(C(=O)Nc2cccc(-c3nncn3C(C)C)n2)cc1-n1cnc(C2CC2)c1
% of control [13]: 100%

Cn1cc(Nc2nccc(N3CC4CCC(C3)N4C(=O)[C@@H]3CC3(F)F)n2)cn1
% of inhibition [14]: 101%
